System: RNA transcripts in HDF cell line
Assay: ΔPSI (iExon production / exon inclusion), FET and Fold Decrease of RNA transcripts in HDF cell line treated at 3 μM
Format: cell-based
Conditions: for FD HDF: Fold Decrease
Protocol: Results: The statistically significant value for the likelihood of iExon production (ΔPSI) according to the Fisher's Exact Test (FET) for PNN and HDF cell lines treated with Compound 774 at 3 μM and Fold Decrease (FD) for certain genes tested, where NR represents “Not Reported,” is shown in Table 10.
The ΔPSI for inclusion of an iExon and resulting modulated expression of RNA transcripts identified is represented by stars, where one star (*) represents ≤25% change in expression, where two stars (**) represent change in expression in a range from <26% to ≤50% change, where three stars (***) represent change in expression in a range from <51% to ≤75% change, and, where four stars (****) represent change in expression in a range from <75% to ≤100% change.
Results: The statistically significant value for the likelihood of exon inclusion (ΔPSI) according to the Fisher's Exact Test (FET) for PNN and HDF cell lines treated with Compound 774 at 3 μM and Fold Decrease (FD) for certain genes tested, where NR represents “Not Reported,” is shown in Table 10a.
The ΔPSI for inclusion of an exon and resulting modulated expression of RNA transcripts identified is represented by stars, where one star (*) represents ≤25% change in expression, where two stars (**) represent change in expression in a range from <26% to ≤50% change, where three stars (***) represent change in expression in a range from <51% to ≤75% change, and, where four stars (****) represent change in expression in a range from <75% to ≤100% change.

[1] = gene FAM198B, exon e3, HDF cells, 3 μM
[2] = gene PRUNE2, exon e18, HDF cells, 3 μM

CCc1nc(C)cn2nc(-c3cc(=O)n4cc(C5CCN(C)CC5)cc(C)c4n3)cc12 [Compound 774]
FD HDF [1]: −0.35
FD HDF [2]: −1.74
ΔPSI (HDF) (gene APLP2, exon e7, HDF cells, 3 μM): ** (two stars (**) represent change in expression in a range from <26% to ≤50% change)
ΔPSI (HDF) (gene AXIN1, exon e9, HDF cells, 3 μM): * (one star (*) represents ≤25% change in expression)
ΔPSI (HDF) (gene CECR7, exon e5, HDF cells, 3 μM): * (one star (*) represents ≤25% change in expression)
ΔPSI (HDF) (gene DAGLB, exon e4, HDF cells, 3 μM): * (one star (*) represents ≤25% change in expression)
ΔPSI (HDF) (gene DLGAP4, exon e8, HDF cells, 3 μM): * (one star (*) represents ≤25% change in expression)
ΔPSI (HDF) (gene ERCC1, exon e8, HDF cells, 3 μM): * (one star (*) represents ≤25% change in expression)
ΔPSI (HDF) (gene ERGIC3, exon e8, HDF cells, 3 μM): * (one star (*) represents ≤25% change in expression)
ΔPSI (HDF) [1]: * (one star (*) represents ≤25% change in expression)
ΔPSI (HDF) (gene GGCT, exon e2, HDF cells, 3 μM): ** (two stars (**) represent change in expression in a range from <26% to ≤50% change)
ΔPSI (HDF) (gene HAT1, exon e3, HDF cells, 3 μM): * (one star (*) represents ≤25% change in expression)
ΔPSI (HDF) (gene HPS1, exon e5, HDF cells, 3 μM): * (one star (*) represents ≤25% change in expression)
ΔPSI (HDF) (gene INPP5K, exon e2, HDF cells, 3 μM): * (one star (*) represents ≤25% change in expression)
ΔPSI (HDF) (gene MADD, exon e21, HDF cells, 3 μM): * (one star (*) represents ≤25% change in expression)
ΔPSI (HDF) (gene PPHLN1, exon e3, HDF cells, 3 μM): ** (two stars (**) represent change in expression in a range from <26% to ≤50% change)
ΔPSI (HDF) [2]: ** (two stars (**) represent change in expression in a range from <26% to ≤50% change)
ΔPSI (HDF) (gene RAP1A, exon e2, HDF cells, 3 μM): * (one star (*) represents ≤25% change in expression)
ΔPSI (HDF) (gene RNFT1, exon e3, HDF cells, 3 μM): * (one star (*) represents ≤25% change in expression)
ΔPSI (HDF) (gene RPS6KB2, exon e2, HDF cells, 3 μM): * (one star (*) represents ≤25% change in expression)
ΔPSI (HDF) (gene SH3YL1, exon e9, HDF cells, 3 μM): * (one star (*) represents ≤25% change in expression)
ΔPSI (HDF) (gene SKA2, exon e3, HDF cells, 3 μM): * (one star (*) represents ≤25% change in expression)
ΔPSI (HDF) (gene SPATA18, exon e4, HDF cells, 3 μM): * (one star (*) represents ≤25% change in expression)
ΔPSI (HDF) (gene STRN3, exon e8, HDF cells, 3 μM): *** (three stars (***) represent change in expression in a range from <51% to ≤75% change)
ΔPSI (HDF) (gene TMEM189-UBE2V1, exon e6, HDF cells, 3 μM): * (one star (*) represents ≤25% change in expression)
ΔPSI (HDF) (gene TRIM65, exon e5, HDF cells, 3 μM): ** (two stars (**) represent change in expression in a range from <26% to ≤50% change)
ΔPSI (HDF) (gene TUBE1, exon e4, HDF cells, 3 μM): * (one star (*) represents ≤25% change in expression)
ΔPSI (HDF) (gene UBE2V1, exon e3, HDF cells, 3 μM): * (one star (*) represents ≤25% change in expression)
ΔPSI (HDF) (gene VPS29, exon e2, HDF cells, 3 μM): ** (two stars (**) represent change in expression in a range from <26% to ≤50% change)
ΔPSI (HDF) (gene ZFP82, iExon inclusion position i4, HDF cell line, Compound 774 at 3 μM): ** (two stars (**) represent change in expression in a range from <26% to ≤50% change)
ΔPSI (HDF) (gene ZNF37BP, iExon inclusion position i4, HDF cell line, Compound 774 at 3 μM): *** (three stars (***) represent change in expression in a range from <51% to ≤75% change)
ΔPSI (HDF) (gene ZNF138, iExon inclusion position i3, HDF cell line, Compound 774 at 3 μM): * (one star (*) represents ≤25% change in expression)
ΔPSI (HDF) (gene ZNF232, iExon inclusion position i4, HDF cell line, Compound 774 at 3 μM): * (one star (*) represents ≤25% change in expression)
ΔPSI (HDF) (gene ZNF680, exon e3, HDF cells, 3 μM): * (one star (*) represents ≤25% change in expression)

Reference: patent US11702646B2, “Methods for modulating RNA splicing” (PTC THERAPEUTICS, INC., priority 2016, dated 2023)
